The subject of one assay is E. coli (Ec, ATCC 25922). As to the kind of experiment: microbe, parasite or virus in culture. The class given is cell-based, Escherichia coli. The settings on record: for MIC: Escherichia coli, ATCC25922. The essentials:
(§1)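 Cultures grown in Mueller–Hinton broth were adjusted by OD600 to 2.5–3 × 10^4 CFU/mL and mixed with two-fold peptide dilutions from 256 to 1 µg/mL. Plates were incubated at 35 °C with OD595 monitored every hour for 24 h.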

Assay [1] has as its system human red blood cells (RBC). As to the kind of experiment: Haemolytic activity assay. The class given is cell-based. As to conditions: for Selectivity index (SI) G- / Selectivity index (SI) G+ / Selectivity index (SI) Fungi: Table S3, highest tested concentration used where EC50 above it; for Selectivity index (SI) G-: EC50/GM of Gram-negative strains; for Selectivity index (SI) G+: EC50/GM of Gram-positive strains; for Selectivity index (SI) Fungi: EC50/GM of fungi; for SI (selectivity index = EC50/GM): haemolytic EC50 over GM of MIC against all bacterial strains, Table 1; for RBC Tox. (EC50), haemolytic activity: human RBC, 1 h, 37 °C, concentration giving 50% haemolysis. The method, boiled down:
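Washed human erythrocytes (1% hematocrit final) incubated 1 h at 37 °C with agitation with lipopeptides at 500–3.9 μM in PBS (≤1% DMSO), duplicates. Haemoglobin release read at 545 nm relative to 0.1% Triton X-100; EC50 is 50% haemolysis, averaged from three experiments.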

In assay [2] the test system is B. subtilis 168. Put plainly: Bacterial biosensor viability assay (lux operon luminescence). It counts as cell-based, Bacillus subtilis. The settings on record: B. subtilis 168, increasing concentrations, within 3 min. The text has this: (§2) Changes in light emission of sensor bacteria constitutively expressing the bacterial lux operon or a eukaryotic luciferase can be used as a proxy for viability and membrane integrity, respectively. Light production of the viability biosensors represents metabolic activity of the bacteria. For the membrane integrity assay on the other hand, light production depends on the influx of the externally added D-luciferin, which at neural pH will not readily pass the intact plasma membrane. An initial increase in light production therefore corresponds with damage to the plasma membrane and a concomitant influx of D-luciferin, while a subsequent drop in light emission indicates diminishing ATP reserves of the dying sensor bacteria.
(§3) Bacterial viability, based on light production by constitutively expressed bacterial luciferase, was measured in real time according to the method described by Hansen et al.. The assay was performed using B. subtilis 168 with chromosomally integrated luxABCDE operon and E. coli K12 carrying the plasmid pCGLS-11 containing the luxCDABE operon. […] No D-luciferin was added to the cell suspension. Each assay was performed at least three times independently, and the figures show a representative dataset.

Assay [3] relates to E. coli K12. As to the kind of experiment: Bacterial biosensor membrane integrity assay (luciferase, D-luciferin influx). It counts as cell-based, Escherichia coli.
Text: as §2
(§4) A membrane integrity assay was performed using two bacterial biosensors, B. subtilis 168 (ATCC 23857) and E. coli K12 (ATCC MC1061). Both strains carry the pCSS962 plasmid that contains a eukaryotic luciferase gene (lucGR), which originate from the click beetle Pyrophorus plagiophthalamus. The assay was performed as described previously. […] D-luciferin potassium salt (Synchem Inc., Elk Grove Village, IL, USA) was added to the cell suspension at a final concentration of 1 mM. Two-fold dilutions (final assay concentration of 50–1.56 µg/mL) of peptides dissolved in Milli-Q water were prepared and added (10 µL per well) to black round-bottom 96-well microtiter plates (Nunc). Milli-Q water served as a negative control used for the normalization purpose and CHX, having known membranolytic activity, was used as a positive control. The plates were loaded into a Synergy H1 Hybrid Reader and the background luminescence was monitored before aliquots (90 µL) of the cell suspension with D-luciferin were added, one well at the time, by an automatic injector. Light emission was recorded every second for 3 min. Each study was performed at least three times independently, and the figures show a representative dataset.

Assay [4] relates to B. subtilis 168. The assay is described as above. It counts as cell-based, Bacillus subtilis. As to conditions: for time of membranolytic action (luminescence peak not detectable): B. subtilis 168, 25 µg/mL and 50 µg/mL.
Text: as §2, §4

Assay [5] has as its system E. coli K12. Put plainly: Bacterial biosensor viability assay (lux operon luminescence). The class given is cell-based, Escherichia coli. The settings on record: E. coli K12, within 3 min.
Text: as §2, §3

The test system of assay [6] is Gram-negative bacterial strains (E. coli and P. aeruginosa). Put plainly: Antibacterial MIC assay, Gram-negative strains together (range or geometric mean). The class given is cell-based. The settings on record: Table S3; MIC >256 set to 256. The essentials:
as §1

The test system of a further assay is E. coli (ATCC 25922). As to the kind of experiment: Bacterial killing experiment (CFU count after MIC assay). It counts as cell-based, Escherichia coli. As for the experimental part: A killing experiment was performed on selected lipopeptides by using actively growing cultures of S. aureus (ATCC 9144) and E. coli (ATCC 25922). The procedure was performed as previously described. […] The number of colony-forming units (CFU) was determined after 24 h of incubation at 37 °C. The tests were performed in triplicate.

Where [7] appears, read: at half-MIC, compared to growth control.

Converted amounts (≈) assume the structure as drawn. Like-named read-outs stand apart in the source and are kept apart here. Where a SMILES comes first, the peptide text is derived from it. Bridges are numbered along the chain shown (N, C = ends). The star is where a group is joined. Lauroyl = CCCCCCCCCCCC(=O)*; Octanoyl = CCCCCCCC(=O)* Where only a bound is given, the exact number is not on record here.

For the molecule `[H]/N=C(\N/C(=N/[H])NCCCCCCNC(=N)NC(=N)Nc1ccc(Cl)cc1)Nc1ccc(Cl)cc1` [Chlorhexidine, reference compound], the MIC in the assay on E. coli (Ec, ATCC 25922) (E. coli ATCC 25922, 24 h, read-out: Antimicrobial Activity (MIC) Gram − Ec) came out at 1.6 µg/mL (≈ 3.17 µM); in the assay with E. coli (Ec, ATCC 25922) (Table 2, laboratory strain, read-out: MIC E. coli ATCC 25922 (from Table 1)), 1.6 µg/mL (≈ 3.17 µM).

`CCCCCCCC(=O)N[C@H]1CSSC[C@@H](C(=O)N[C@@H](CCCCN)C(=O)N[C@@H](CC(C)C)C(N)=O)NC(=O)[C@H](CCCCN)NC(=O)[C@H](Cc2c[nH]c3ccccc23)NC(=O)CNC(=O)[C@H](Cc2c[nH]c3ccccc23)NC(=O)[C@H](Cc2c[nH]c3ccccc23)NC(=O)[C@H](CCCCN)NC(=O)[C@H](CCCCN)NC(=O)CNC1=O` [Peptide C8-cTurg-2, C8- (CGKKWWGWKC)KL-NH2] (Octanoyl-CGKKWWGWKCKL-NH2; disulfide 1-10): in assay [1], the “Selectivity index (SI) G-” value came out at 78, the “Selectivity index (SI) G+” value is 155, the “Selectivity index (SI) Fungi” value is given as 35 and the “SI (selectivity index = EC50/GM)” value was 123. For the same molecule, the “RBC Tox. (EC50), haemolytic activity” value in assay [1] is recorded as 439 µg/mL. The “effect on viability (light emission)” value with B. subtilis 168 [2] is listed as “dose-dependent effect on viability”. The “effect in membrane integrity assay” value with E. coli K12 [3] (E. coli K12, 50 µg/mL) was “even further delayed rise in peak luminescence”. Further, in the assay on B. subtilis 168 [4], the “time of membranolytic action (luminescence peak not detectable)” value was less than 3 s. In the assay on E. coli K12 [5], the “effect on viability (light emission)” value is “gradual, dose-dependent reduction in viability”. The “GM of MIC G-” value in assay [6] came out at 6 µg/mL. In addition, in the assay on E. coli (ATCC 25922) (at MIC (or above), 24 h), the “colony-forming units (CFU) after treatment” value (from here on “colony-forming units (CFU)”) is “No CFU were observed”. The “colony-forming units (CFU)” value with E. coli (ATCC 25922) (setting [7]) is recorded as “slightly less colony-forming units (CFU) were formed”.

For `CCCCCCCCCCCC(=O)N[C@H]1CSSC[C@@H](C(=O)N[C@@H](CCCCN)C(=O)N[C@@H](CC(C)C)C(N)=O)NC(=O)[C@H](CCCCN)NC(=O)[C@H](Cc2c[nH]c3ccccc23)NC(=O)CNC(=O)CNC(=O)[C@@H]2CCCN2C(=O)[C@H](CCCCN)NC(=O)[C@H](CCCCN)NC(=O)CNC1=O` [Peptide C12-cTurg-1, C12 -(CGKKPGGWKC)KL-NH2] (Lauroyl-CGKKPGGWKCKL-NH2; disulfide 1-10), in assay [1], the “Selectivity index (SI) G-” value turned out to be 27, the “Selectivity index (SI) G+” value was 77, the “Selectivity index (SI) Fungi” value is reported as 11 and the “SI (selectivity index = EC50/GM)” value was found to be 55. In addition, the “RBC Tox. (EC50), haemolytic activity” value in assay [1] is recorded as 219 µg/mL. The “effect on viability (light emission)” value in the assay with B. subtilis 168 [2] is “dose-dependent effect on viability”. The “effect in membrane integrity assay” value with E. coli K12 [3] (E. coli K12, 25 µg/mL) is “further delayed response”. Further, in the assay with E. coli K12 [3] (E. coli K12, 50 µg/mL, delayed compared to chlorhexidine), the “rise in luminescence in membrane integrity assay” value is on record as 3.5 fold. The “effect in membrane integrity assay” value in the assay with E. coli K12 [3] (E. coli K12, concentrations lower than 25 µg/mL) is “no effect”. The “time of membranolytic action (luminescence peak not detectable)” value in the assay with B. subtilis 168 [4] was less than 3 s. Besides, the “effect on membrane integrity” value in the assay with B. subtilis 168 [4] (B. subtilis 168, within 3 min) was “rapid and strong membrane disruptive effect”. Moreover, the “effect on viability (light emission)” value in the assay with E. coli K12 [5] is “gradual, dose-dependent reduction in viability”. For the same molecule, the “GM of MIC G-” value in assay [6] was found to be 8 µg/mL. In addition, the “colony-forming units (CFU)” value in the assay with E. coli (ATCC 25922) (at MIC (or above), 24 h) is recorded as “No CFU were observed”. For the same molecule, in the assay on E. coli (ATCC 25922) (setting [7]), the “colony-forming units (CFU)” value is “slightly less colony-forming units (CFU) were formed”. Further, the “MIC E. coli ATCC 25922 (from Table 1)” value with E. coli (Ec, ATCC 25922) (ATCC 25922, 2 h) was 2 to 4 µg/mL. Also, the “Antimicrobial Activity (MIC) Gram − Ec” value with E. coli (Ec, ATCC 25922) (ATCC 25922, 24 h) is 4 µg/mL.

The values above are taken from article PMC9696794, “Synthesis and Antimicrobial Activity of Short Analogues of the Marine Antimicrobial Peptide Turgencin A: Effects of SAR Optimizations, Cys-Cys Cyclization and Lipopeptide Modifications” (International Journal of Molecular Sciences, 2022).
